Laboratory results as given in paper PMC4385830, “Group I Paks as therapeutic targets in NF2-deficient meningioma” (Oncotarget, 2015).

Assays:
Experiment in all cases: Kinase selectivity, Z'-LYTE
Assay type in all cases: biochemical
[1] = target: T1, ROCK2 (Homo sapiens, UniProt O75116)
T1 construct: purchased Invitrogen (Life Technologies) SelectScreen Z'-LYTE
Method: (§1) Kinase selectivity was assessed using a commercial service that employs a fluorescence-based, coupled-enzyme assay based on the differential sensitivity of phosphorylated and non-phosphorylated peptides to proteolytic cleavage (Invitrogen, Z'-LYTE®). This assay uses recombinant protein kinases and assay mixed optimized for each particular kinase (http://www.lifetechnologies.com/us/en/home/life-science/drug-discovery/target-and-lead-identification-and-validation /kinasebiology/kinase-activity-assays/z-lyte.html).

[2] = target: T2, KDR (VEGFR2) (Homo sapiens, UniProt P35968)
T2 construct: purchased Invitrogen (Life Technologies) SelectScreen Z'-LYTE
Method: as §1

[3] = target: T3, PAK6 (Homo sapiens, UniProt Q9NQU5)
T3 construct: purchased Invitrogen (Life Technologies) SelectScreen Z'-LYTE
Method: as §1

[4] = target: T4, SPHK1 (Homo sapiens, UniProt Q9NYA1)
T4 construct: purchased Invitrogen (Life Technologies) SelectScreen Z'-LYTE
Method: as §1

[5] = target: T5, ACVR1B (ALK4) (Homo sapiens, UniProt P36896)
T5 construct: purchased Invitrogen (Life Technologies) SelectScreen Z'-LYTE
T5 sequence (P36896 24-505): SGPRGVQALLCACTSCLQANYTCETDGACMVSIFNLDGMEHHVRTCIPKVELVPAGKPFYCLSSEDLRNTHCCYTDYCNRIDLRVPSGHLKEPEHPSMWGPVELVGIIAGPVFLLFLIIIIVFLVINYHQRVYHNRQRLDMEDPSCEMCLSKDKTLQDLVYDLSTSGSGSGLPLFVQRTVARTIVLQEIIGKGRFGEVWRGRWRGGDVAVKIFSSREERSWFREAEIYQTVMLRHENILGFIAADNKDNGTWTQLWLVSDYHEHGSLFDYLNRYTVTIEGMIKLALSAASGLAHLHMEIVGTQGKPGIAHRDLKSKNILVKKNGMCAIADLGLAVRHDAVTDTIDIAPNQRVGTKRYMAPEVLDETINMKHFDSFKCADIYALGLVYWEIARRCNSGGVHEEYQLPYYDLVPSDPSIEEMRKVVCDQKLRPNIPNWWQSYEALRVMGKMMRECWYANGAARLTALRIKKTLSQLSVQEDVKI
Method: as §1

[6] = target: T6, PAK3 (Homo sapiens, UniProt O75914)
T6 construct: purchased Invitrogen (Life Technologies) SelectScreen Z'-LYTE
Method: as §1

[7] = target: T7, MAPK14 (p38 alpha) Direct (Homo sapiens, UniProt Q16539)
T7 construct: purchased Invitrogen (Life Technologies) SelectScreen Z'-LYTE
Method: as §1

[8] = target: T8, G3K3A (G3K3 alpha) (Homo sapiens, UniProt P49840)
T8 construct: purchased Invitrogen (Life Technologies) SelectScreen Z'-LYTE
Method: as §1

[9] = target: T9, PRKCE (PKC epsilon) (Homo sapiens, UniProt Q02156)
T9 construct: purchased Invitrogen (Life Technologies) SelectScreen Z'-LYTE
T9 sequence (Q02156 1-737): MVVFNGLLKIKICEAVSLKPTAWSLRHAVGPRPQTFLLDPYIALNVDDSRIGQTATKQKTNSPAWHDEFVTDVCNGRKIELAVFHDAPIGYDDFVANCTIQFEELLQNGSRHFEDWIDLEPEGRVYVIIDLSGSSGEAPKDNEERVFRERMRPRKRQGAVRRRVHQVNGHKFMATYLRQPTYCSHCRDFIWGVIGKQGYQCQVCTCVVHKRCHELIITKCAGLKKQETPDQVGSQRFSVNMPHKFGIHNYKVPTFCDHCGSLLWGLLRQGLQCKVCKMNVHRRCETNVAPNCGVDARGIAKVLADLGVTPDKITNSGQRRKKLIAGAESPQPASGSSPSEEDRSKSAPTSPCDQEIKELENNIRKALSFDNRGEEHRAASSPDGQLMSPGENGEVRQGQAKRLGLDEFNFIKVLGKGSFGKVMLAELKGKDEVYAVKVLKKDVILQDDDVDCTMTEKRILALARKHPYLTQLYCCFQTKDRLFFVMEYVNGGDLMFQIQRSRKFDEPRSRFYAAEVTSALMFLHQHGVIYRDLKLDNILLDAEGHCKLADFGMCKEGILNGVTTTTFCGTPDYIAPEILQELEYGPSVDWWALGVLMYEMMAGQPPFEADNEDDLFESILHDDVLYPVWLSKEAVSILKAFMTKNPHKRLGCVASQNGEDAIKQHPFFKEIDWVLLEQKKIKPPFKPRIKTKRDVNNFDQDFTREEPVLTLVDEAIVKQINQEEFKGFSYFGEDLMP
Method: as §1

[10] = target: T10, ITK (Homo sapiens, UniProt Q08881)
T10 construct: purchased Invitrogen (Life Technologies) SelectScreen Z'-LYTE
T10 sequence (Q08881 1-620): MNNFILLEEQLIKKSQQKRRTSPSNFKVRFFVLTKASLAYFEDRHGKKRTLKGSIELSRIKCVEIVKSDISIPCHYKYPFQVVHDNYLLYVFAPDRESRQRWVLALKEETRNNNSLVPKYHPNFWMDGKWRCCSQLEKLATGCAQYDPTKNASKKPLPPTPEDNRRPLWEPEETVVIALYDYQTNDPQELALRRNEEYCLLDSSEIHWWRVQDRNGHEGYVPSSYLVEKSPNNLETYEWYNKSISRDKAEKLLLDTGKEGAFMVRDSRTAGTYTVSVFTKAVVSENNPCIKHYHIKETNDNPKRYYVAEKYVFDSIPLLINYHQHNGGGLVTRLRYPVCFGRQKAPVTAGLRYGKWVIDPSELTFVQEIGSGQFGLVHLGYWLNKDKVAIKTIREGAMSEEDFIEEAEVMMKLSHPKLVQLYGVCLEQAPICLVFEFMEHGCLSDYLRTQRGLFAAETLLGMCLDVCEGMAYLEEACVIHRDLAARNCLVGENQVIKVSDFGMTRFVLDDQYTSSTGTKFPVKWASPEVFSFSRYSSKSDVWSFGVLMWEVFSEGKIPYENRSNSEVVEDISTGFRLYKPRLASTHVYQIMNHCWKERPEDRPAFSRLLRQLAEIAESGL
Method: as §1

[11] = target: T11, TYK2 (Homo sapiens, UniProt P29597)
T11 construct: purchased Invitrogen (Life Technologies) SelectScreen Z'-LYTE
Method: as §1

[12] = target: T12, CSNK1D (CK1 delta) (Homo sapiens, UniProt P48730)
T12 construct: purchased Invitrogen (Life Technologies) SelectScreen Z'-LYTE
Method: as §1

[13] = target: T13, P1K3CA (p110 gamma) (Homo sapiens, UniProt P48736)
T13 construct: purchased Invitrogen (Life Technologies) SelectScreen Z'-LYTE
Method: as §1

[14] = target: T14, BRAF (Homo sapiens, UniProt P15056)
T14 construct: purchased Invitrogen (Life Technologies) SelectScreen Z'-LYTE
Method: as §1

[15] = target: T15, ERBB2 (HER2) (Homo sapiens, UniProt P04626)
T15 construct: purchased Invitrogen (Life Technologies) SelectScreen Z'-LYTE
Method: as §1

[16] = target: T16, ERBB4 (HER4) (Homo sapiens, UniProt Q15303)
T16 construct: purchased Invitrogen (Life Technologies) SelectScreen Z'-LYTE
Method: as §1

T13 sequence (P48736 whole entry): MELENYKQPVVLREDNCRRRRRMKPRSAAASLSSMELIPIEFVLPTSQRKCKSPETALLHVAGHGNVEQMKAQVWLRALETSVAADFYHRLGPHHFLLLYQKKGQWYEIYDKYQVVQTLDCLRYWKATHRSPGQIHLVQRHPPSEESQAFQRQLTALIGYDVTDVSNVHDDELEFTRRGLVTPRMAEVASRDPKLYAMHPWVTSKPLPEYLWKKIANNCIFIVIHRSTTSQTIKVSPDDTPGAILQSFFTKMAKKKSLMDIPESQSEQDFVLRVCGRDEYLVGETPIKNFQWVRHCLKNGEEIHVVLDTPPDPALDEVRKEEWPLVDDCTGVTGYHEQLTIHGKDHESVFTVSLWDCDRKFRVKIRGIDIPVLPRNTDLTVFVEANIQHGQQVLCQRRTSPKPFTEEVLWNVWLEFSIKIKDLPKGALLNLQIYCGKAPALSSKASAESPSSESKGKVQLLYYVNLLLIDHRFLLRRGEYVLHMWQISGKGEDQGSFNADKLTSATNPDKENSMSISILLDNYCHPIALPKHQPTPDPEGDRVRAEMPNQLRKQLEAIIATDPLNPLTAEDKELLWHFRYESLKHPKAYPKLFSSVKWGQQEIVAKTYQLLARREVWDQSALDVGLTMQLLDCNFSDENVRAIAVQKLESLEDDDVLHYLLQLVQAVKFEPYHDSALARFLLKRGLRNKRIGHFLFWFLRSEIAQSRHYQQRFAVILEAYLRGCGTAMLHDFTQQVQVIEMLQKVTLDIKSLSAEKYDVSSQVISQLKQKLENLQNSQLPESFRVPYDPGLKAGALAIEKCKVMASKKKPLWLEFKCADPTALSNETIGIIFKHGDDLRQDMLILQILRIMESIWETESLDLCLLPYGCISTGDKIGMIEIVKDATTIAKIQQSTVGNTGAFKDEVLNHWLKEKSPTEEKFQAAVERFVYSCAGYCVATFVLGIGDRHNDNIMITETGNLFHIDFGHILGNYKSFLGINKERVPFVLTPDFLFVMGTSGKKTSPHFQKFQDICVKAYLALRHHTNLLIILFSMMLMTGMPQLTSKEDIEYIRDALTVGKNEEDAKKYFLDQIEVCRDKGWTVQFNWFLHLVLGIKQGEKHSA
T7 sequence (Q16539 whole entry): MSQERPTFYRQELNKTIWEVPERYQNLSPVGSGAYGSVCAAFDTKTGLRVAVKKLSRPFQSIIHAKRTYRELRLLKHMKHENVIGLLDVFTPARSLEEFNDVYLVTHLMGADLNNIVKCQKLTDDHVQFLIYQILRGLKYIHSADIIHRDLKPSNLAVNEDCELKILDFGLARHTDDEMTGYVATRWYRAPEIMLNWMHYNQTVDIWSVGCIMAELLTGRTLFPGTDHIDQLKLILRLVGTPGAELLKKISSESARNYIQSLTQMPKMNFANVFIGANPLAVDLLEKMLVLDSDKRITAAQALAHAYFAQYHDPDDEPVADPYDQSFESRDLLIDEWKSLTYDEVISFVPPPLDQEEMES
T15 sequence (P04626 23-1255): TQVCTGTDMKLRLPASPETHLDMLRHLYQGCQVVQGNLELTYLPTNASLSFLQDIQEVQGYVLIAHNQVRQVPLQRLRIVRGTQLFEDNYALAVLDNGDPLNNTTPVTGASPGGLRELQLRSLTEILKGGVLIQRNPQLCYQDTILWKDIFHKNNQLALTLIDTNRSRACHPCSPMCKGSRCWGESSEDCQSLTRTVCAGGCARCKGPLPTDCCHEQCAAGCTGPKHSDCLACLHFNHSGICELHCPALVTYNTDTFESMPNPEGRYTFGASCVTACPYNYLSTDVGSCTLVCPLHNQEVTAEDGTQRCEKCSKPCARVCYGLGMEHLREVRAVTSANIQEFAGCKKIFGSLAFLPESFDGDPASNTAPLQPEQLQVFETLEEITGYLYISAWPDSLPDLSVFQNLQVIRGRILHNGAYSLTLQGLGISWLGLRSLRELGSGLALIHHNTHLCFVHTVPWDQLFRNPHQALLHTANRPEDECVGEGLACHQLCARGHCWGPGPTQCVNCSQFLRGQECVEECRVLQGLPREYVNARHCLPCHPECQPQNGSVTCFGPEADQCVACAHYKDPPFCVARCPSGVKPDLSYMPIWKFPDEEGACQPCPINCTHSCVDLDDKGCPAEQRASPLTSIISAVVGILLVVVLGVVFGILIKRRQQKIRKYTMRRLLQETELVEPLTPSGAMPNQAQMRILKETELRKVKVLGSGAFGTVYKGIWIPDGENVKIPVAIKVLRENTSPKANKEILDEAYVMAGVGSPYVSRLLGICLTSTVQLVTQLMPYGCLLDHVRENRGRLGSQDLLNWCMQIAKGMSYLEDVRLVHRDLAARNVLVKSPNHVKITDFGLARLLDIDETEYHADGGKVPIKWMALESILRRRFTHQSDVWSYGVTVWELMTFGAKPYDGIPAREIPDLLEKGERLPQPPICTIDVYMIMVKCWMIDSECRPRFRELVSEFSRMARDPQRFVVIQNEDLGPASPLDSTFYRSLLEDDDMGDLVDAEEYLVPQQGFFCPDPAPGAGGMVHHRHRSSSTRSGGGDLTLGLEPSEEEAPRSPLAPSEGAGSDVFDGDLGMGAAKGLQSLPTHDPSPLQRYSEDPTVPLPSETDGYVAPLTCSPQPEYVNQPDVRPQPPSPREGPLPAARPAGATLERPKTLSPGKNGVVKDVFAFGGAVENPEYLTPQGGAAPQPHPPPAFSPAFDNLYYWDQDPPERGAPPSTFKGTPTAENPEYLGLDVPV
T12 sequence (P48730 whole entry): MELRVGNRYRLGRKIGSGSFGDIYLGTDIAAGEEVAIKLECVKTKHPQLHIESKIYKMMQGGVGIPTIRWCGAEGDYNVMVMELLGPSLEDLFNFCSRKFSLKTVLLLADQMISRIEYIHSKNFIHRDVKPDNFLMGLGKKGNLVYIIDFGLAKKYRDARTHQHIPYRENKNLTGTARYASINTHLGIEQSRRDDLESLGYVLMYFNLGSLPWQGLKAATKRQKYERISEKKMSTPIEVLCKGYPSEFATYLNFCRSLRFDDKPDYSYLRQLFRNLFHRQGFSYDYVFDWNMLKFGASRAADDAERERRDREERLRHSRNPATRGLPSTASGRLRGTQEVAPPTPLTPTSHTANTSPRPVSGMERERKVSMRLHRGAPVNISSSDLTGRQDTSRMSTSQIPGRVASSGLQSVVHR
T14 sequence (P15056 whole entry): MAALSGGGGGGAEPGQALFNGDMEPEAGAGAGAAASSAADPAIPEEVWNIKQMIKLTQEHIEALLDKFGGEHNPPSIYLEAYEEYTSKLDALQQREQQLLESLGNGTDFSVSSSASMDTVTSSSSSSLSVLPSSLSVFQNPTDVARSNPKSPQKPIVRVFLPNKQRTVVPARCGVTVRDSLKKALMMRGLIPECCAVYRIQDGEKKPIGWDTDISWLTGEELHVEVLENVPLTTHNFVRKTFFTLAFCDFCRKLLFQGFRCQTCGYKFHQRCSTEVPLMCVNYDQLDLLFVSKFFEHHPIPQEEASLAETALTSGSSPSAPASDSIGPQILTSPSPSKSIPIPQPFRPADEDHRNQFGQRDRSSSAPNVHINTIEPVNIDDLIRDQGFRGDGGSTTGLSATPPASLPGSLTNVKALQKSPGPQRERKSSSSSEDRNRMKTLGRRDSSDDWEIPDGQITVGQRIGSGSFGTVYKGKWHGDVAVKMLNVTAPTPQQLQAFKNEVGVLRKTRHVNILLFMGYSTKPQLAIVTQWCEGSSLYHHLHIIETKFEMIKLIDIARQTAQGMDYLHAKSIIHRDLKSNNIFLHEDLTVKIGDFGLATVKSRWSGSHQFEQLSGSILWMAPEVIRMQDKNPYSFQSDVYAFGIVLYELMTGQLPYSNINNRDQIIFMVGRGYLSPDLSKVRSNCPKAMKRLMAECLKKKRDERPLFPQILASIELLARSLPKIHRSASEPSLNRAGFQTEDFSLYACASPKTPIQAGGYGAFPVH
T8 sequence (P49840 whole entry): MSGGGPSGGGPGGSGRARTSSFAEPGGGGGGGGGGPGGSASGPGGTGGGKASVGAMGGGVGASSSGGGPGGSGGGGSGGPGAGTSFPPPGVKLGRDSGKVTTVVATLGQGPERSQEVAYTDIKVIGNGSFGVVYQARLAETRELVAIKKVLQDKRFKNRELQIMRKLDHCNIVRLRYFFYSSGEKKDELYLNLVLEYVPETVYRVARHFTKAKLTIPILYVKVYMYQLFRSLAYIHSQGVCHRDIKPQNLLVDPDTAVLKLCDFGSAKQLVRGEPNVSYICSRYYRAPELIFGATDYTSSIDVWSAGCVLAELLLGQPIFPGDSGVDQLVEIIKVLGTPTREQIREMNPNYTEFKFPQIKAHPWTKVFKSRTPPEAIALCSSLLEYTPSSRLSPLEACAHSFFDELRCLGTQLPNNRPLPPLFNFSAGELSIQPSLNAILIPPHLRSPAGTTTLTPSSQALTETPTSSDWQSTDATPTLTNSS
T3 sequence (Q9NQU5 whole entry): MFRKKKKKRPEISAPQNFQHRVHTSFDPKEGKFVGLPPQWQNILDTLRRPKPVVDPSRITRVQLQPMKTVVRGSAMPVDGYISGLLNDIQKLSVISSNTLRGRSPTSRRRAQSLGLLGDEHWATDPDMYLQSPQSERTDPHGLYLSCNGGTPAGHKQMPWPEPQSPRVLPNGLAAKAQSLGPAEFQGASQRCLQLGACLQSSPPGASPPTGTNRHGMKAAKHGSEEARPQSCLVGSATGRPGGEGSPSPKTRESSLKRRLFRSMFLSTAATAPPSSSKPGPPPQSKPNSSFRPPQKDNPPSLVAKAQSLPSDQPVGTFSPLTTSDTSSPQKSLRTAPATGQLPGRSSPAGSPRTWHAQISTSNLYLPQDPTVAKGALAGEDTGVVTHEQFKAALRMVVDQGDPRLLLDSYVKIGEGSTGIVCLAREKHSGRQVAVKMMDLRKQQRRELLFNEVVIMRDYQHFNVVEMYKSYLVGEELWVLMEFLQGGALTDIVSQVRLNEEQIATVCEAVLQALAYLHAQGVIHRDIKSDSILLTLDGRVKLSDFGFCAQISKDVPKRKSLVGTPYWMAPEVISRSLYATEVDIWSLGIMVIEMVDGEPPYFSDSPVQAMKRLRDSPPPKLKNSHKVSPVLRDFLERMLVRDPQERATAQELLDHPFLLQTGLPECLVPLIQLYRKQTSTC

Row | Compound | % inhibition of activity [1] [%] | % inhibition of activity [2] [%] | % inhibition of activity [3] [%] | % inhibition of activity [4] [%] | % inhibition of activity [5] [%] | % inhibition of activity [6] [%] | % inhibition of activity [7] [%] | % inhibition of activity [8] [%] | % inhibition of activity [9] [%] | % inhibition of activity [10] [%] | % inhibition of activity [11] [%] | % inhibition of activity [12] [%] | % inhibition of activity [13] [%] | % inhibition of activity [14] [%] | % inhibition of activity [15] [%] | % inhibition of activity [16] [%]
1 | CCn1c(=O)c(-c2ccc(-c3noc(C)n3)cc2Cl)cc2cnc(Nc3ccc(C4CCN(C)CC4)cc3)nc21 [Frax716] | 4 | 90 | 17 | −3 | −9 | 90 | 10 | −9 | 14 | 84 | 54 | 6 | 0 | 72 | 8 | 77
2 | CCn1c(=O)c(-c2ccc(-c3cncc(C)n3)cc2Cl)cc2cnc(NCCC3CCN(C)CC3)nc21 [Frax1036] | 7 | 16 | 27 | 0 | 0 | 106 | 0 | 7 | 25 | 0 | 6 | 11 | 0 | 7 | 2 | 0
3 | Cc1nc(Nc2[nH]nc3c2CN(C(=O)N[C@H](CN(C)C)c2ccccc2)C3(C)C)c2sccc2n1 [PF3758309, reference compound] | 10 | 20 | 98 | 4 | 1 | 100 | 7 | 52 | 62 | 23 | 14 | 3 | 0 | 52 | 4 | 2
